According to patent US9956236B2, “Methods for increasing immune responses using agents that directly bind to and activate IRE-1” (Cornell University, priority 2011, dated 2018):

Legend:
recombinant IRE1 protein = recombinant IRE1 protein (Homo sapiens, UniProt O75460); assay: In vitro fluorescent splicing reporter assay with recombinant IRE1 protein; format: biochemical; details: doses of PIs ranging from 20 uM to 0.63 uM; fluorescence over time
IL-6 = IL-6 production with Nelfinavir and synthetic TLR4 agonist MPLA; format: cell-based; details: Nelfinavir plus TLR4 agonist MPLA compared to TLR4 agonist alone
Description: FIG. 1. HIV-protease inhibitors (PIs) trigger robust IRE1 and XBP1 activation and synergize with TLR4 activation to produce cytokines and co-stimulatory molecules. A) XBP1 mRNA maturation (XBP1s) in J774 cells stimulated with dose dependent concentrations of HIV-PIs (similar data were obtained in primary mouse M0s, and various M0 cell lines of human and mouse origin). B) Cell extracts of cells stimulated with Tunicamycin (TM) or HIV-protease inhibitors were monitored for IRE1 activation by phosphorylation in a Phos-tag SDS-PAGE gel, CHOP induction and ATF6a processing. C) Realtime PCR of CHOP induction by the ER-stress inducer TM and the HIV-PI Nelfinavir (NFR) was analyzed in PERK proficient and deficient MEFs. […]
XBP1 mRNA maturation (XBP1s) in J774 cells stimulated with dose dependent concentrations of HIV-PIs (similar data were obtained in primary mouse M0s, and various M0 cell lines of human and mouse origin) see FIG. 1, panel A. Cell extracts of cells stimulated with Tunicamycin (TM) or HIV-protease inhibitors were monitored for IRE1 activation by phosphorylation in a Phos-tag SDS-PAGE gel, CHOP induction and ATF6a processing, see FIG. 1, panel B. Realtime PCR of CHOP induction by the ER-stress inducer TM and the HIV-PI Nelfinavir (NFR) was analyzed in PERK proficient and deficient MEFs see FIG. 1, panel C.

CD86 and CD40 = assay: Co-stimulatory ligand (CD86 and CD40) expression with Nelfinavir and synthetic TLR4 agonist MPLA; format: cell-based; details: Nelfinavir plus TLR4 agonist MPLA compared to TLR4 agonist alone

Chain of recombinant IRE1 protein (O75460 19-977, species assumed): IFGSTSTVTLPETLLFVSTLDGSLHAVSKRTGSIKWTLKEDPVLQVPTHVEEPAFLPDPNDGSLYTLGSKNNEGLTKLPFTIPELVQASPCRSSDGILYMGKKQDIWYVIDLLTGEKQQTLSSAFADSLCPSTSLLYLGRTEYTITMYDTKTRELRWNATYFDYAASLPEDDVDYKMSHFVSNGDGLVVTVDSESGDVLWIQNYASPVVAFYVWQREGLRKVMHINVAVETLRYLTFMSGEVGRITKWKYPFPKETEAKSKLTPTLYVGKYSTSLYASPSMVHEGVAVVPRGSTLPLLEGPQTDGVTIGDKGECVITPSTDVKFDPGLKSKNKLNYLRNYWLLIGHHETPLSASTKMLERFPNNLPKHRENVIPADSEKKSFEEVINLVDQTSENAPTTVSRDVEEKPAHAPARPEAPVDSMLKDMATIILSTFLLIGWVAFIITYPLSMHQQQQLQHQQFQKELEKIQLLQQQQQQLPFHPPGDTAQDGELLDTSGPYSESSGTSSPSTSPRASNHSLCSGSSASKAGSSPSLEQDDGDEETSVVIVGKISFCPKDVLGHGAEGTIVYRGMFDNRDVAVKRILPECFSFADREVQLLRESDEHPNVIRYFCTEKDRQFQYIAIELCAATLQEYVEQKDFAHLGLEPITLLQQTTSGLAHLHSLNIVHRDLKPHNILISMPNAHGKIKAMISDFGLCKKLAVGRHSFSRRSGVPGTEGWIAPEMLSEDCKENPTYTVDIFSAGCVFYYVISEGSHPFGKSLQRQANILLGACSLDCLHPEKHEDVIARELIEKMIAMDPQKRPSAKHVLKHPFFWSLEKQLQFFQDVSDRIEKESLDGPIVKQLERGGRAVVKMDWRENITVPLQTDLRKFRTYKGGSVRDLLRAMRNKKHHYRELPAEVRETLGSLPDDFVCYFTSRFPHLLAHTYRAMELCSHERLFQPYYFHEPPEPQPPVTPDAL

induction of xbp1 splicing (recombinant IRE1 protein)	SMILES	IL-6 production (IL-6)	CD40 expression (CD86 and CD40)	CD86 expression (CD86 and CD40)
marked induction	Cc1c(O)cccc1C(=O)N[C@@H](CSc1ccccc1)[C@H](O)CN1C[C@H]2CCCC[C@H]2C[C@H]1C(=O)NC(C)(C)C [Nelfinavir]	Increased	Increased	Increased
not	CC(C)CN(C[C@@H](O)[C@H](Cc1ccccc1)NC(=O)O[C@H]1CCOC1)S(=O)(=O)c1ccc(N)cc1 [amprenivir, amprenavir]			
marked induction	CC(C)c1nc(CN(C)C(=O)N[C@H](C(=O)N[C@@H](Cc2ccccc2)C[C@H](O)[C@H](Cc2ccccc2)NC(=O)OCc2cncs2)C(C)C)cs1 [ritonivir, ritonavir]			
